Assay results taken from article PMC6458995, “MAP4K4 Inhibition Promotes Survival of Human Stem Cell-Derived Cardiomyocytes and Reduces Infarct Size In Vivo” (Cell Stem Cell, 2019).

Columns and labels:
Experiment in all cases: Dundee kinase panel
Assay type in all cases: biochemical
Conditions in all cases: for remaining activity at 1 µM: read-out: residual activity
PLK1 = molecular target: T1, PLK1 (Homo sapiens, UniProt P53350)
T1 construct: lines 1-140) and Reaction Biology
Protocol: (§1) Compounds were screened at 1 μM. For key hits, pIC50 values were then determined by HTRF as above. […] Stability in mouse and human liver microsomes was determined by Cyprotex.

TTK = molecular target: T2, TTK (Homo sapiens, UniProt P33981)
T2 construct: lines 1-140) and Reaction Biology
T2 sequence (P33981 1-857): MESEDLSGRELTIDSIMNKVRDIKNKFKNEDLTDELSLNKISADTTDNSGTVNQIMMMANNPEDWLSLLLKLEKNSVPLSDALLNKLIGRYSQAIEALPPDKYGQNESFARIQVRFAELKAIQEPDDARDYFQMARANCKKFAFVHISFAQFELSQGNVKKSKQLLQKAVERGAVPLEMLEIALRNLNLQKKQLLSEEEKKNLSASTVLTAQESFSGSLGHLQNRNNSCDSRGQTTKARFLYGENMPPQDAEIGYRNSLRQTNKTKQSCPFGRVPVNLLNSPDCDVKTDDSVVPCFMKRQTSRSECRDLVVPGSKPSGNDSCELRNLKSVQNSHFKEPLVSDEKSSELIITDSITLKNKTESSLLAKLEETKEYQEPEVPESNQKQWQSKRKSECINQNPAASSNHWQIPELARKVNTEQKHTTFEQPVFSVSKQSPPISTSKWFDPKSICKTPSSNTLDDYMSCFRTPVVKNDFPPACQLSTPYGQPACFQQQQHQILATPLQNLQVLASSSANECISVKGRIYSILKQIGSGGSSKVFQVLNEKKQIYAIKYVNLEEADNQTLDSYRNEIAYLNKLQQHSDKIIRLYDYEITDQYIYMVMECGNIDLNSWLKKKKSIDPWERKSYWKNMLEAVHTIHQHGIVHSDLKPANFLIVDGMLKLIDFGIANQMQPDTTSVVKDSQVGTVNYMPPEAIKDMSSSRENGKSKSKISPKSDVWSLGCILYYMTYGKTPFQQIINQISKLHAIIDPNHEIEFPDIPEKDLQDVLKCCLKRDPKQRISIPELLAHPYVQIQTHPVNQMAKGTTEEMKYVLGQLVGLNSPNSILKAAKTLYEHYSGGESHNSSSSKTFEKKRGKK
Protocol: as §1

EPH-B1 = molecular target: T3, EPH-B1 (Homo sapiens, UniProt P54762)
T3 construct: lines 1-140) and Reaction Biology
T3 sequence (P54762 18-984): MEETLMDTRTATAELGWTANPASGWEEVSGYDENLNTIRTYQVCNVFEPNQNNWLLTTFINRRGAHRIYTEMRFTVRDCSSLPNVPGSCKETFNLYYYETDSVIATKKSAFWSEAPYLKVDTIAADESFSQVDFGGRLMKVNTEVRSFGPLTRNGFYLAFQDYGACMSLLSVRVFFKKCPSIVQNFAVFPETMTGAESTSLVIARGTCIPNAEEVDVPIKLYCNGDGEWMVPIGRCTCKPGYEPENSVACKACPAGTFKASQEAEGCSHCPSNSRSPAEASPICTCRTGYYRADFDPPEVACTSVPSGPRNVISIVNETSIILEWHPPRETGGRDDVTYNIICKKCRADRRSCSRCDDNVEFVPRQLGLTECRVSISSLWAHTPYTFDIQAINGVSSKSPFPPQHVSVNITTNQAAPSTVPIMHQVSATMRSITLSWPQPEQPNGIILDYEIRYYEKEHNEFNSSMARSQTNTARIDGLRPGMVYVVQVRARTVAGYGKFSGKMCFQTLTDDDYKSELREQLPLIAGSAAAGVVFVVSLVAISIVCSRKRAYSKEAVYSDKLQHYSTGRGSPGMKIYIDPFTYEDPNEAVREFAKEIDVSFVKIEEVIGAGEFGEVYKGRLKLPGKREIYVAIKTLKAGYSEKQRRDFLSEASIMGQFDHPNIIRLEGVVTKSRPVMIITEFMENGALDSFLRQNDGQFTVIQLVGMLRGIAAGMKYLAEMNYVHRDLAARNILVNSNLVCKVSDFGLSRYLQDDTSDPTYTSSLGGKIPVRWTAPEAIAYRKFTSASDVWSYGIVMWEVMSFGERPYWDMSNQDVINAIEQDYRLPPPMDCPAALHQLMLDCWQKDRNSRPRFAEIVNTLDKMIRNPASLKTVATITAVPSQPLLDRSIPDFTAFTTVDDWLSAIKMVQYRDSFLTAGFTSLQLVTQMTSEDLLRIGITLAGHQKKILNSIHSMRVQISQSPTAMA
Protocol: as §1

MSK1 = molecular target: T4, MSK1 (Homo sapiens, UniProt O75582)
T4 construct: lines 1-140) and Reaction Biology
Protocol: as §1

CDK2-Cyclin A = molecular target: T5, CDK2-Cyclin A (Homo sapiens, UniProt P24941)
T5 construct: lines 1-140) and Reaction Biology
Protocol: as §1

TRKA = molecular target: T6, TRKA (Homo sapiens, UniProt P04629)
T6 construct: lines 1-140) and Reaction Biology
Protocol: as §1

YES1 = molecular target: T7, YES1 (Homo sapiens, UniProt P07947)
T7 construct: lines 1-140) and Reaction Biology
Protocol: as §1

PAK5 = molecular target: T8, PAK5 (Homo sapiens, UniProt Q9P286)
T8 construct: lines 1-140) and Reaction Biology
Protocol: as §1

JNK2 = molecular target: T9, JNK2 (Homo sapiens, UniProt P45984)
T9 construct: lines 1-140) and Reaction Biology
Protocol: as §1

CHK2 = molecular target: T10, CHK2 (Homo sapiens, UniProt O96017)
T10 construct: lines 1-140) and Reaction Biology
Protocol: as §1

JNK3 = molecular target: T11, JNK3 (Homo sapiens, UniProt P53779)
T11 construct: lines 1-140) and Reaction Biology
Protocol: as §1

TIE2 = molecular target: T12, TIE2 (Homo sapiens, UniProt Q02763)
T12 construct: lines 1-140) and Reaction Biology
Protocol: as §1

MNK1 = molecular target: T13, MNK1 (Homo sapiens, UniProt Q9BUB5)
T13 construct: lines 1-140) and Reaction Biology
Protocol: as §1

PAK2 = molecular target: T14, PAK2 (Homo sapiens, UniProt Q13177)
T14 construct: lines 1-140) and Reaction Biology
Protocol: as §1

CK1γ2 = molecular target: T15, CK1γ2 (Homo sapiens, UniProt P78368)
T15 construct: lines 1-140) and Reaction Biology
Protocol: as §1

T15 sequence (P78368 whole entry): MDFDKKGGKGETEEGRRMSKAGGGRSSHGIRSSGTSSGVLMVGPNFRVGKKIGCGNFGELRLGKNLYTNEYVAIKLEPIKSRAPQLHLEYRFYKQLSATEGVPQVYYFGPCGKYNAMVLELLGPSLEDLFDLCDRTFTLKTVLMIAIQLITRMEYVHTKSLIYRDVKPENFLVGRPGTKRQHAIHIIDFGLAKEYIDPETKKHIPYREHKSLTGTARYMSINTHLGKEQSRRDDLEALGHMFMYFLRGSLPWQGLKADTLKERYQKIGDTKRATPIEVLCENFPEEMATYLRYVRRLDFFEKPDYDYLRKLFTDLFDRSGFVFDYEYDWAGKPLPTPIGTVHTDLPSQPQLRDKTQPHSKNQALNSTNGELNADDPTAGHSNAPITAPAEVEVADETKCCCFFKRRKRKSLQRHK
T6 sequence (P04629 33-796): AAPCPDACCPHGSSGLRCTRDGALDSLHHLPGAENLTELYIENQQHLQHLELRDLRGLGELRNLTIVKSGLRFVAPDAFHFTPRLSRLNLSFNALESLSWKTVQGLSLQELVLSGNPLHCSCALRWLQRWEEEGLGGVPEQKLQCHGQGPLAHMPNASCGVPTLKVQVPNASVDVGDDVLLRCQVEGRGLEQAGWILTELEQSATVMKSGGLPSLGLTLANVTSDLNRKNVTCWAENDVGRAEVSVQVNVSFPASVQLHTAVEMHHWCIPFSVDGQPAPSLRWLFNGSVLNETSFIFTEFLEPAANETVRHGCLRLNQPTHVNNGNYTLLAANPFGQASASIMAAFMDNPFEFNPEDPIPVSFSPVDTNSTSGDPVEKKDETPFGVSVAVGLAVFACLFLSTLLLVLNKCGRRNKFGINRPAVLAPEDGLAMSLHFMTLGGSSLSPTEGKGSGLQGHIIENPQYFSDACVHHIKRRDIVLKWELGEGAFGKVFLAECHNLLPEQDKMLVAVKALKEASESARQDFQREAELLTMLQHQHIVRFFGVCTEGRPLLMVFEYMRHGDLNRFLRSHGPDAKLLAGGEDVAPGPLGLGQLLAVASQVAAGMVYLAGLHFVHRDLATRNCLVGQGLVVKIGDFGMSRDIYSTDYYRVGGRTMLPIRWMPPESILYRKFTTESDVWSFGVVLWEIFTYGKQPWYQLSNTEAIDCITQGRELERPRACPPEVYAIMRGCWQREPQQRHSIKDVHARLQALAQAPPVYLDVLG
T4 sequence (O75582 whole entry): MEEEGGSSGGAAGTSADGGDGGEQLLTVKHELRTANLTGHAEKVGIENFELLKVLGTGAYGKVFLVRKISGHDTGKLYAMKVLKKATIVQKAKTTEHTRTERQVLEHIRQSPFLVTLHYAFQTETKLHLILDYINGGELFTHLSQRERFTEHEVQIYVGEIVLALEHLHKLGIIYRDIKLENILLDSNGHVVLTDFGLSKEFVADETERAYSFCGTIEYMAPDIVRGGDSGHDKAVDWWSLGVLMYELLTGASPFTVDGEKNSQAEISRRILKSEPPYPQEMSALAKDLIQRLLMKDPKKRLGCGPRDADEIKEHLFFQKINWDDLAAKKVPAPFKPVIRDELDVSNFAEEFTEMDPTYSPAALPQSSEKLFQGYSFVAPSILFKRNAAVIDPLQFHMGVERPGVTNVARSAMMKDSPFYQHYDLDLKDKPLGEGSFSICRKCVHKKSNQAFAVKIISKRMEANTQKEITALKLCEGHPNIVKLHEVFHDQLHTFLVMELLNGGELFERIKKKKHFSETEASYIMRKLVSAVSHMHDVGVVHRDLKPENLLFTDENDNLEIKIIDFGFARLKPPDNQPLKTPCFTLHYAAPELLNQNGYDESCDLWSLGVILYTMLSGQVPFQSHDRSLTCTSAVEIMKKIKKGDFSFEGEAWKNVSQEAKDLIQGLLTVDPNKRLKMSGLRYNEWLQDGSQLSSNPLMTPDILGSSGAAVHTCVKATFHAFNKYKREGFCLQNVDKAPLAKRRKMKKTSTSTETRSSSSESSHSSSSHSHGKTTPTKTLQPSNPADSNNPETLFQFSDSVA
T10 sequence (O96017 whole entry): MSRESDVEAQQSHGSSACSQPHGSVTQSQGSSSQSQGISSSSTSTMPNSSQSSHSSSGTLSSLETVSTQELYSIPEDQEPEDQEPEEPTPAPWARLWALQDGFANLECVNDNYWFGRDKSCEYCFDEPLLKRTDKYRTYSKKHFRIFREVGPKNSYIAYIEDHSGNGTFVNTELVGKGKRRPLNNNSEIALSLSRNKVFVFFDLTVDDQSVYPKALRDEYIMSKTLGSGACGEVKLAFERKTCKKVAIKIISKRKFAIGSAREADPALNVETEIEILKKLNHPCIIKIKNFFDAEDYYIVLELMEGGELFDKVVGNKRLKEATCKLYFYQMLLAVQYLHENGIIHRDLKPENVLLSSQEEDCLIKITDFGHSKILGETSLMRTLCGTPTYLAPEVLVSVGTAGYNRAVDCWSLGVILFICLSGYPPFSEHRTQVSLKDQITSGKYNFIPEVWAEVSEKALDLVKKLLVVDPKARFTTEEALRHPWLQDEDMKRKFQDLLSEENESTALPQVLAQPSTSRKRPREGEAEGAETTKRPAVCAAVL
T9 sequence (P45984 whole entry): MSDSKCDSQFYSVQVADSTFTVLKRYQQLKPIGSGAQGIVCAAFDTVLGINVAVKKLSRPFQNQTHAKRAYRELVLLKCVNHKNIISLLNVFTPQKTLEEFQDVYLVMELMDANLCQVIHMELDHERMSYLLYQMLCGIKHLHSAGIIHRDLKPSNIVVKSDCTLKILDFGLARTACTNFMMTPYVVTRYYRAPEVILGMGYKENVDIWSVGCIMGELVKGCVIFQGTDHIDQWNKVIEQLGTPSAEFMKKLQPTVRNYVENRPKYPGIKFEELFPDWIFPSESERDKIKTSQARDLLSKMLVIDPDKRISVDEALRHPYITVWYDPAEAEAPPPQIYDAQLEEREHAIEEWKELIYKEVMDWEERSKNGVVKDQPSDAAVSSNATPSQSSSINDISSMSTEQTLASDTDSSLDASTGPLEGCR
T1 sequence (P53350 whole entry): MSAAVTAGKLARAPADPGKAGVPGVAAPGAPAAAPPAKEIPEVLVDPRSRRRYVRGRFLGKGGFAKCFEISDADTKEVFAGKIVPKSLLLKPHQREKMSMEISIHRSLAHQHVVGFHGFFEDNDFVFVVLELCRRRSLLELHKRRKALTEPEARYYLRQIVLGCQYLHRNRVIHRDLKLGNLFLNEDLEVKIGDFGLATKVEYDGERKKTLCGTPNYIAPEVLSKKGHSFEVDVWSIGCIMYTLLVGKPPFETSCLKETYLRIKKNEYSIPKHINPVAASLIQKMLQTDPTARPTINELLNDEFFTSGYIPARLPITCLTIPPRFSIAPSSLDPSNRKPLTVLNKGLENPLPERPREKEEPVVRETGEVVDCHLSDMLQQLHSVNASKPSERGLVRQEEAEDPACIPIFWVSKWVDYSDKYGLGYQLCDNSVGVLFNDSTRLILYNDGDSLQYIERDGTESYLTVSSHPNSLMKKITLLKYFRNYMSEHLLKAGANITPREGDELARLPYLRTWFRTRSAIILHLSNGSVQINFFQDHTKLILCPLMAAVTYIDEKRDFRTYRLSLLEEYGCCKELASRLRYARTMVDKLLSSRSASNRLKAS
T7 sequence (P07947 whole entry): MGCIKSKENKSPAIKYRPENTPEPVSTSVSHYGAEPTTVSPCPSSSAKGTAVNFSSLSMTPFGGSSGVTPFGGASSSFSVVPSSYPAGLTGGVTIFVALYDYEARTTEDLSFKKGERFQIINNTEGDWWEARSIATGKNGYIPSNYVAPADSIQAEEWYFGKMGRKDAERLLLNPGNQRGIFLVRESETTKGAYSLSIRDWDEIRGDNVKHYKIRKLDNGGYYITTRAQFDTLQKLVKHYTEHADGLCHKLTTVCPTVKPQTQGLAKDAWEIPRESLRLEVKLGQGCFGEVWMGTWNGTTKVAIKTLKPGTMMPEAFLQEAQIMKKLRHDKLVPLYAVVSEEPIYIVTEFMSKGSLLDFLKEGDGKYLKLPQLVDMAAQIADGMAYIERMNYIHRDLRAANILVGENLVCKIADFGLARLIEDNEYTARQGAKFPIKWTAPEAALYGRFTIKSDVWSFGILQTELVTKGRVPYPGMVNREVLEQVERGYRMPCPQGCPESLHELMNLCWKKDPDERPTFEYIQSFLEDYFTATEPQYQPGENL
T8 sequence (Q9P286 whole entry): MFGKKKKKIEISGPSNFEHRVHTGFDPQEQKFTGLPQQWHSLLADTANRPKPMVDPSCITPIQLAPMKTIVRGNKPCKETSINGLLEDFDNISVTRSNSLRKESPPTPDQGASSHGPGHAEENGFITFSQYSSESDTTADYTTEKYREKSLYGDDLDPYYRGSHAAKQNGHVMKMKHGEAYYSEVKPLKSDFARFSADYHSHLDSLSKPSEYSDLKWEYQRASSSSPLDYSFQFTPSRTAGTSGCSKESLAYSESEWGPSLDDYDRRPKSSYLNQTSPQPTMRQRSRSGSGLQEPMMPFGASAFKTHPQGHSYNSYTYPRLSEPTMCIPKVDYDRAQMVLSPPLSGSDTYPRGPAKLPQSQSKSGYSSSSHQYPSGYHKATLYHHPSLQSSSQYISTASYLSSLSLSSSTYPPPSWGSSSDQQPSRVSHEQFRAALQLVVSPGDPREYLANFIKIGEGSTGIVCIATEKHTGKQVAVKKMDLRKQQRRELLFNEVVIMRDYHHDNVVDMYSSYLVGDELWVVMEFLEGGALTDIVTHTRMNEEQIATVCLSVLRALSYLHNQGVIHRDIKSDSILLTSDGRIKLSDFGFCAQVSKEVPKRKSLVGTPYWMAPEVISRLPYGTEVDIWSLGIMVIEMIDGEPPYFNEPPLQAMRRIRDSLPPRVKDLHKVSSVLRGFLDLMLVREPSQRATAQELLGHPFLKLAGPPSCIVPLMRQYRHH

| Structure (SMILES) | remaining activity at 1 µM (PLK1) [%] | remaining activity at 1 µM (TTK) [%] | remaining activity at 1 µM (EPH-B1) [%] | remaining activity at 1 µM (MSK1) [%] | remaining activity at 1 µM (CDK2-Cyclin A) [%] | remaining activity at 1 µM (TRKA) [%] | remaining activity at 1 µM (YES1) [%] | remaining activity at 1 µM (PAK5) [%] | remaining activity at 1 µM (JNK2) [%] | remaining activity at 1 µM (CHK2) [%] | remaining activity at 1 µM (JNK3) [%] | remaining activity at 1 µM (TIE2) [%] | remaining activity at 1 µM (MNK1) [%] | remaining activity at 1 µM (PAK2) [%] | remaining activity at 1 µM (CK1γ2) [%] | also measured |
| --- | --- | --- | --- | --- | --- | --- | --- | --- | --- | --- | --- | --- | --- | --- | --- | --- |
| COCCOc1ccc(-c2cn(-c3ccccc3)c3nc[nH]c(=O)c23)cc1 [DMX-5804, 5-[4-(2-methoxy-ethoxy)-phenyl]-7-phenyl-3,7-dihydro-pyrrolo[2,3-d]pyrimidin-4-one] | 118 | 105 | 108 | 121 | 104 | 74 | 96 | 105 | 103 | 69 | 127 | 101 | 90 | 93 | 103 |  |
| Oc1ncnc2c1c(-c1ccccc1)cn2-c1ccccc1 [F1386-0303, 5,7-diphenyl-7H-pyrrolo[2,3-d]pyrimidin-4-ol] | 100 | 97 | 86 | 102 | 84 | 89 | 85 | 105 | 94 | 100 | 92 | 114 | 102 | 79 | 106 |  |
| Nc1ncc(C(=O)NC2CN(C(=O)C3CC3)C2)c2ccc(-c3cccc(F)c3)nc12 [GNE-495] |  |  |  |  |  |  |  |  |  |  |  |  |  |  |  | residual activity (PLK1; 1 μM): 84%; residual activity (TTK; 1 μM): 87%; residual activity (EPH-B1; 1 μM): 99%; residual activity (MSK1; 1 μM): 69%; residual activity (CDK2-Cyclin A; 1 μM): 55%; residual activity (TRKA; 1 μM): 68%; residual activity (YES1; 1 μM): 53%; residual activity (PAK5; 1 μM): 55%; residual activity (JNK2; 1 μM): 100%; residual activity (CHK2; 1 μM): 102%; residual activity (JNK3; 1 μM): 73%; residual activity (TIE2; 1 μM): 86%; residual activity (MNK1; 1 μM): 53%; residual activity (PAK2; 1 μM): 94%; residual activity (CK1γ2; 1 μM): 107% |
| O=C1Nc2ccc(I)cc2/C1=C/c1cc(Br)c(O)c(Br)c1 [GW5074] | 81 | 88 | 94 | 74 | 111 | 51 | 93 | 77 | 80 | 46 | 65 | 98 | 82 | 29 | 68 |  |
| O=C1Cc2c([nH]c3ccc(Br)cc23)-c2ccccc2N1 [Kenpaullone] | 99 | 97 | 94 | 90 | 93 |  | 100 | 12 | 94 | 25 | 87 | 98 | 91 | 96 | 81 |  |
